Among the test systems are 786-0 renal; A498 renal; BT-549 breast; CAKI-1 renal; COLO 205 colon; HOP-92 NSCLC; HS 578T breast; K-562 leukemia; M14 melanoma; MOLT-4 leukemia; NCI-H226 lung; NCI-H460 lung; NCI/ADR-RES ovarian; SF-268 CNS; SK-MEL-28 melanoma; SK-MEL-5 melanoma; SK-OV-3 ovarian; SNB-75 CNS; U251 CNS; UACC-257 melanoma.
Experiment in all cases: NCI-60 cell line screen, 48 h

SMILES strings stand for the structures.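 Assay format: 96-well plates, 48-hour exposure. Definition used: TGI = concentration required for complete inhibition of growth.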

Turning to `N#CCCN(CCC#N)c1ccc(C(N=Nc2ccc(Cl)cc2)=Nc2ccc(Cl)cc2)cc1`, the TGI was determined as 34.7 µM in the experiment on 786-0 renal; 43.3 µM in the experiment on A498 renal; 36.3 µM in the experiment with BT-549 breast; 45.2 µM with CAKI-1 renal; 31.9 µM in the experiment on COLO 205 colon; 38.8 µM in the experiment on HOP-92 NSCLC. In addition, the TGI with HS 578T breast was 35.2 µM; in the experiment with K-562 leukemia it was greater than 100 µM; in the experiment on M14 melanoma, 58.7 µM; with MOLT-4 leukemia, 87.8 µM; in the experiment on NCI-H226 lung, 36.7 µM; with NCI-H460 lung, 29.2 µM. Moreover, the TGI in the experiment on NCI/ADR-RES ovarian was 38 µM; in the experiment with SF-268 CNS, 33.4 µM; in the experiment with SK-MEL-28 melanoma it was greater than 100 µM; in the experiment with SK-MEL-5 melanoma it was 24.7 µM; in the experiment on SK-OV-3 ovarian it was greater than 100 µM; in the experiment on SNB-75 CNS it was 45.6 µM. The TGI in the experiment on U251 CNS amounted to 33.2 µM; with UACC-257 melanoma, 29.7 µM.
For `CC(=O)OC1[C@@H](OC(C)=O)CN(OCc2ccccc2)C[C@H]1OC(C)=O` (stereo not given in full), the TGI in the experiment on 786-0 renal, in the experiment on A498 renal, with BT-549 breast, in the experiment on CAKI-1 renal, in the experiment with COLO 205 colon and in the experiment with HOP-92 NSCLC was greater than 100 µM each time. Moreover, the TGI in the experiment with HS 578T breast, in the experiment on K-562 leukemia, in the experiment on M14 melanoma, in the experiment on MOLT-4 leukemia, in the experiment on NCI-H226 lung and in the experiment with NCI-H460 lung was greater than 100 µM in each case. Also, the TGI in the experiment on NCI/ADR-RES ovarian is greater than 100 µM; in the experiment with SF-268 CNS, greater than 100 µM; in the experiment on SK-MEL-28 melanoma, greater than 100 µM; in the experiment with SK-MEL-5 melanoma, greater than 100 µM; in the experiment on SK-OV-3 ovarian, 76.4 µM; with SNB-75 CNS, greater than 100 µM. For the same compound, the TGI in the experiment with U251 CNS and in the experiment on UACC-257 melanoma was greater than 100 µM throughout.
As to `Cc1ccc(NC(=O)/C(=N\NC(N)=O)c2c(O)c3ccccc3[nH]c2=O)cc1`, the TGI with 786-0 renal, with A498 renal, in the experiment with BT-549 breast, in the experiment with CAKI-1 renal, with COLO 205 colon and in the experiment on HOP-92 NSCLC was greater than 100 µM throughout. Further, the TGI in the experiment with HS 578T breast, in the experiment on K-562 leukemia, with M14 melanoma, in the experiment with MOLT-4 leukemia, in the experiment on NCI-H226 lung and in the experiment on NCI-H460 lung was greater than 100 µM each time. Also, the TGI in the experiment on NCI/ADR-RES ovarian, with SF-268 CNS, in the experiment on SK-MEL-28 melanoma, in the experiment on SK-MEL-5 melanoma, in the experiment with SK-OV-3 ovarian and with SNB-75 CNS was greater than 100 µM each time. For the same compound, the TGI with U251 CNS and in the experiment with UACC-257 melanoma was greater than 100 µM in each case.
Take `CCn1c(=O)c2c3cc(OC(C)=O)ccc3oc2c2ccc(OC(C)=O)cc21`: the TGI in the experiment with 786-0 renal was greater than 100 µM; in the experiment on A498 renal, 83 µM; in the experiment with BT-549 breast it was greater than 100 µM; in the experiment on CAKI-1 renal, greater than 100 µM; in the experiment with COLO 205 colon it was 55.6 µM; with HOP-92 NSCLC, 90.5 µM. Further, the TGI with HS 578T breast, with K-562 leukemia, in the experiment on M14 melanoma, with MOLT-4 leukemia, with NCI-H226 lung and in the experiment with NCI-H460 lung was greater than 100 µM throughout. Also, the TGI is greater than 100 µM in the experiment with NCI/ADR-RES ovarian; greater than 100 µM with SF-268 CNS; greater than 100 µM with SK-MEL-28 melanoma; greater than 100 µM in the experiment on SK-MEL-5 melanoma; greater than 100 µM in the experiment on SK-OV-3 ovarian; 45 µM with SNB-75 CNS. The TGI in the experiment on U251 CNS and with UACC-257 melanoma was greater than 100 µM in each case.
As for `COc1cc(Nc2nc3ccccc3nc2C(C)C)cc(OC)c1OC`, the TGI in the experiment with 786-0 renal, in the experiment with A498 renal, in the experiment on BT-549 breast, in the experiment with CAKI-1 renal, in the experiment on COLO 205 colon and in the experiment on HOP-92 NSCLC was greater than 100 µM each time. Moreover, the TGI in the experiment on HS 578T breast, in the experiment on K-562 leukemia, in the experiment on M14 melanoma, with MOLT-4 leukemia, in the experiment on NCI-H226 lung and in the experiment with NCI-H460 lung was greater than 100 µM each time. The TGI in the experiment on NCI/ADR-RES ovarian, in the experiment on SF-268 CNS, with SK-MEL-28 melanoma, in the experiment on SK-MEL-5 melanoma, with SK-OV-3 ovarian and with SNB-75 CNS was greater than 100 µM in each case. In addition, the TGI in the experiment on U251 CNS and in the experiment on UACC-257 melanoma was greater than 100 µM in each case.
In the case of `COCn1c(C)c(C)c2c(=O)oc(C)nc21`, the TGI with 786-0 renal was greater than 100 µM; in the experiment with A498 renal, greater than 100 µM; in the experiment on BT-549 breast, greater than 100 µM; with CAKI-1 renal it was 45 µM; in the experiment on COLO 205 colon, greater than 100 µM; with HOP-92 NSCLC it was greater than 100 µM. For the same compound, the TGI in the experiment with HS 578T breast, in the experiment with K-562 leukemia, in the experiment on M14 melanoma, with MOLT-4 leukemia, in the experiment on NCI-H226 lung and with NCI-H460 lung was greater than 100 µM each time. Further, the TGI with NCI/ADR-RES ovarian, in the experiment on SF-268 CNS, in the experiment on SK-MEL-28 melanoma, in the experiment on SK-MEL-5 melanoma, in the experiment on SK-OV-3 ovarian and with SNB-75 CNS was greater than 100 µM throughout. Moreover, the TGI in the experiment on U251 CNS and in the experiment with UACC-257 melanoma was greater than 100 µM throughout.
In the case of `NC(=O)C1CCCN1C(=O)N(CCCl)N=O` (stereo not given), the TGI in the experiment with 786-0 renal, in the experiment with A498 renal, in the experiment with BT-549 breast, in the experiment on CAKI-1 renal, with COLO 205 colon and in the experiment with HOP-92 NSCLC was greater than 100 µM in each case. The TGI with HS 578T breast, in the experiment on K-562 leukemia, in the experiment on M14 melanoma, with MOLT-4 leukemia, in the experiment with NCI-H226 lung and in the experiment on NCI-H460 lung was greater than 100 µM each time. Also, the TGI is greater than 100 µM in the experiment on NCI/ADR-RES ovarian; greater than 100 µM in the experiment on SF-268 CNS; greater than 100 µM with SK-MEL-28 melanoma; greater than 100 µM in the experiment on SK-MEL-5 melanoma; greater than 100 µM in the experiment on SK-OV-3 ovarian; 72.8 µM in the experiment with SNB-75 CNS. Moreover, the TGI in the experiment with U251 CNS and in the experiment with UACC-257 melanoma was greater than 100 µM throughout.

Values taken from PubChem BioAssay (NCI).
